Reference: ChEMBL document CHEMBL4825702, “5-Aminonaphthalene derivatives as selective nonnucleoside nuclear receptor binding SET domain-protein 2 (NSD2) inhibitors for the treatment of multiple myeloma” (Eur J Med Chem, 2021)

Columns and labels:
[1] = biological target: T1, Histone-lysine N-methyltransferase NSD2 (Homo sapiens, UniProt O96028); assay: Inhibition of recombinant human N-terminal GST-tagged NSD2 CD (941 to 1240 residues) expressed in Escherichia coli using SAM as substrate in presence of nucleosomes by AlphaLISA method
T1 sequence (O96028 whole entry): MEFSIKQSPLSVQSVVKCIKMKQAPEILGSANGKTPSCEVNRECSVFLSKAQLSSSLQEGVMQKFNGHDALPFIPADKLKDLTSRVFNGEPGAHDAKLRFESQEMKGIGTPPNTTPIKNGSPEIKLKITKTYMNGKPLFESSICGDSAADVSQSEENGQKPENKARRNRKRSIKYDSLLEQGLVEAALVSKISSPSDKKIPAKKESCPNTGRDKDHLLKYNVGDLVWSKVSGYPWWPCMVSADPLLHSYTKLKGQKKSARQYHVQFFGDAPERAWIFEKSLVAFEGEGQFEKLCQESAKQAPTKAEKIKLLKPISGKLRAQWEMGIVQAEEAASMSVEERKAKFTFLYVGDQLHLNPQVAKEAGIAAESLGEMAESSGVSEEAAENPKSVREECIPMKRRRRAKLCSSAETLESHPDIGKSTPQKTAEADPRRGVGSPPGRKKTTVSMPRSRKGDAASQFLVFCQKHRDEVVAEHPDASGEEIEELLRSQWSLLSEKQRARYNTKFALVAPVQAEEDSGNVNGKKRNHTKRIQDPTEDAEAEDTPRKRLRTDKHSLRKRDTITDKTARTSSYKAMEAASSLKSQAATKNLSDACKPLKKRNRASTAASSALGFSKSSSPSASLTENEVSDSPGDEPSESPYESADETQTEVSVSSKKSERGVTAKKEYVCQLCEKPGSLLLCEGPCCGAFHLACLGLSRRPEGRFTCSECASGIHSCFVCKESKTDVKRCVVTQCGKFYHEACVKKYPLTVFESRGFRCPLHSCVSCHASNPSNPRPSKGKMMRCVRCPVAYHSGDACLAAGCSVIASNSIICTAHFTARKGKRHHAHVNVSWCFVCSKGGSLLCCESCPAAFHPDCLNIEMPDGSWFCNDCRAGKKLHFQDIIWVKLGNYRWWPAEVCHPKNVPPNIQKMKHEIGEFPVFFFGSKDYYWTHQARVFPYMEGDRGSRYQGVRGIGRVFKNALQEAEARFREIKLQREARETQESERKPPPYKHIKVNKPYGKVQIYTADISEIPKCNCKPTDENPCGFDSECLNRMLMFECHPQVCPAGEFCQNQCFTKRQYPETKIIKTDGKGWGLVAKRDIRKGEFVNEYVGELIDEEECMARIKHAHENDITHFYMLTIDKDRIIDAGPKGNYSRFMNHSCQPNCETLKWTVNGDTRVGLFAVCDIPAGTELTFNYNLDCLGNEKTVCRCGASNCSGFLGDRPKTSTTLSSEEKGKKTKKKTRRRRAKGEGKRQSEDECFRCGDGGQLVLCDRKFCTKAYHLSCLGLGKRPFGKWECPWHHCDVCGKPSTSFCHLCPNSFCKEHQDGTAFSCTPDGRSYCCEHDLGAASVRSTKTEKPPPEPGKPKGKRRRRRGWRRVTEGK

[2] = biological target: Histone-lysine N-methyltransferase, H3 lysine-36 specific (Homo sapiens, UniProt Q96L73); assay: Inhibition of human NSD1-SET using histone H3.1 as substrate incubated for 1 hr by Western blot analysis
Chain of Histone-lysine N-methyltransferase, H3 lysine-36 specific (Q96L73 whole entry): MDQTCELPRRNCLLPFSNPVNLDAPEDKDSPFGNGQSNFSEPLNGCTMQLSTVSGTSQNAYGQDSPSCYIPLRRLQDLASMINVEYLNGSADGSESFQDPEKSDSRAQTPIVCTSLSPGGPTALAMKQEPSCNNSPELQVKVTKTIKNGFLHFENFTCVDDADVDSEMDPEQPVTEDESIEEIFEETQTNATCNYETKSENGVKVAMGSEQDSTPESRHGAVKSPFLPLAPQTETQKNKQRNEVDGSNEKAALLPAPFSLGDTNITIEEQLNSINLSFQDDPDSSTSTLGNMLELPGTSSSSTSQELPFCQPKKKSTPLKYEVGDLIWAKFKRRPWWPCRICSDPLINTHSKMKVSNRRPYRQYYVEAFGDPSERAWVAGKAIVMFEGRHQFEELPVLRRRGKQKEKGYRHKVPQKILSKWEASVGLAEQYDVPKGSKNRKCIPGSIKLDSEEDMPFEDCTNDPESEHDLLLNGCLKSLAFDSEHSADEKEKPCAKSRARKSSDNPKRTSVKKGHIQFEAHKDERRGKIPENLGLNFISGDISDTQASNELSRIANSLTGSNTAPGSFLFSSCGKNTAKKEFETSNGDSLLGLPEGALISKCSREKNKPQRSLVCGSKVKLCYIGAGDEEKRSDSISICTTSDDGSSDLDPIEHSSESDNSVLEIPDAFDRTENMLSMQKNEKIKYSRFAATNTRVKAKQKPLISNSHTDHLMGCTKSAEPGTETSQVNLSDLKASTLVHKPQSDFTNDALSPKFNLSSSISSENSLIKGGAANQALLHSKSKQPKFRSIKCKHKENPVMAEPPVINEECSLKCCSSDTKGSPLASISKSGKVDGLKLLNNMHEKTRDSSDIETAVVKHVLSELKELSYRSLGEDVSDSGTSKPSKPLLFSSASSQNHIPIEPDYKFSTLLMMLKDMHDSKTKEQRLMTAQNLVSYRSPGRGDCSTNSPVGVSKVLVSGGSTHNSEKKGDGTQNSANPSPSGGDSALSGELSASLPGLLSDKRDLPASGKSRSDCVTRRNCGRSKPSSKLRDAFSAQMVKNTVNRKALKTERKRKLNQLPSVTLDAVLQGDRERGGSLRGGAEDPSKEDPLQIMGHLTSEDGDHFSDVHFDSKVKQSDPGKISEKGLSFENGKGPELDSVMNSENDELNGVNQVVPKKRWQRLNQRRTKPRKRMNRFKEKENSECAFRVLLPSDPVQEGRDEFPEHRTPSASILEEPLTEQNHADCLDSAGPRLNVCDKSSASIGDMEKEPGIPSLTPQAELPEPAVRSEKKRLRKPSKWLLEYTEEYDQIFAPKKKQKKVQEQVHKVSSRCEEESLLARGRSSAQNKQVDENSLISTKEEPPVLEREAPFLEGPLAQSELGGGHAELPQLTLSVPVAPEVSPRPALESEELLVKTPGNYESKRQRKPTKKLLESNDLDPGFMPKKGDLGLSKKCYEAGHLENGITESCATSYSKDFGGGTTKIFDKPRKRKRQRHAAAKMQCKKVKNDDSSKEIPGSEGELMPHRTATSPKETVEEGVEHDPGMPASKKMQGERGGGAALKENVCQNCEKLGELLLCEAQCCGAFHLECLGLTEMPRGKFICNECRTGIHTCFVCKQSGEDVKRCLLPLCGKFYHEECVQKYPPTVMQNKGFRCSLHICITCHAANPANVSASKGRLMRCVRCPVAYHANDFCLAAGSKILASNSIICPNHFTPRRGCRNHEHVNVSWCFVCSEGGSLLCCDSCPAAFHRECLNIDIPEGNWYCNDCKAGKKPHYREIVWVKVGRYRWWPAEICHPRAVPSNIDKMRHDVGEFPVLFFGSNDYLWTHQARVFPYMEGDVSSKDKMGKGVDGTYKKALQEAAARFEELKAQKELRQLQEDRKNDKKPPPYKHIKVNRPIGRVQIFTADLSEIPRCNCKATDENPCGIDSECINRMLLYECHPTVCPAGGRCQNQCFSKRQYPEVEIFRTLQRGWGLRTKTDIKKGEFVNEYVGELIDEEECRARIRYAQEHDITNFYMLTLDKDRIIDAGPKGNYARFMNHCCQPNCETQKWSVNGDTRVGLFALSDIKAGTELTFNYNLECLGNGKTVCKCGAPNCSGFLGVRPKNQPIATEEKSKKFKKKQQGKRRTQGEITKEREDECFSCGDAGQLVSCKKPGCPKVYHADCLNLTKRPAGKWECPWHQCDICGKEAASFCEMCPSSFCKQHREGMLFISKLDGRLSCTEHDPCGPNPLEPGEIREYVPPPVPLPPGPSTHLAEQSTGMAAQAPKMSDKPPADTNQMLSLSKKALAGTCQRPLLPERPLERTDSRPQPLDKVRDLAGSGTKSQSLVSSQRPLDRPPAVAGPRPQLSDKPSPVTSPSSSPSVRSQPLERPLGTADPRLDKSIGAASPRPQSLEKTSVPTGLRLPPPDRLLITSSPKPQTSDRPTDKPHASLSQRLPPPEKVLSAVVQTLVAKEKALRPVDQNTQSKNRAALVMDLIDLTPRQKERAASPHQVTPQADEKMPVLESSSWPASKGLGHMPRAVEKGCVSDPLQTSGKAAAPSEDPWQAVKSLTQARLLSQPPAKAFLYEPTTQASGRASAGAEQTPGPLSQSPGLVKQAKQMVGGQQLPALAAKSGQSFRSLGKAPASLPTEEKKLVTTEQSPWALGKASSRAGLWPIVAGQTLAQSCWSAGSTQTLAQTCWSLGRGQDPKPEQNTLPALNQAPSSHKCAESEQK

[3] = biological target: Histone-lysine N-methyltransferase NSD3 (Homo sapiens, UniProt Q9BZ95); assay: Inhibition of human NSD3-SET using histone H3.1 as substrate incubated for 1 hr by Western blot analysis
Chain of Histone-lysine N-methyltransferase NSD3 (Q9BZ95 whole entry): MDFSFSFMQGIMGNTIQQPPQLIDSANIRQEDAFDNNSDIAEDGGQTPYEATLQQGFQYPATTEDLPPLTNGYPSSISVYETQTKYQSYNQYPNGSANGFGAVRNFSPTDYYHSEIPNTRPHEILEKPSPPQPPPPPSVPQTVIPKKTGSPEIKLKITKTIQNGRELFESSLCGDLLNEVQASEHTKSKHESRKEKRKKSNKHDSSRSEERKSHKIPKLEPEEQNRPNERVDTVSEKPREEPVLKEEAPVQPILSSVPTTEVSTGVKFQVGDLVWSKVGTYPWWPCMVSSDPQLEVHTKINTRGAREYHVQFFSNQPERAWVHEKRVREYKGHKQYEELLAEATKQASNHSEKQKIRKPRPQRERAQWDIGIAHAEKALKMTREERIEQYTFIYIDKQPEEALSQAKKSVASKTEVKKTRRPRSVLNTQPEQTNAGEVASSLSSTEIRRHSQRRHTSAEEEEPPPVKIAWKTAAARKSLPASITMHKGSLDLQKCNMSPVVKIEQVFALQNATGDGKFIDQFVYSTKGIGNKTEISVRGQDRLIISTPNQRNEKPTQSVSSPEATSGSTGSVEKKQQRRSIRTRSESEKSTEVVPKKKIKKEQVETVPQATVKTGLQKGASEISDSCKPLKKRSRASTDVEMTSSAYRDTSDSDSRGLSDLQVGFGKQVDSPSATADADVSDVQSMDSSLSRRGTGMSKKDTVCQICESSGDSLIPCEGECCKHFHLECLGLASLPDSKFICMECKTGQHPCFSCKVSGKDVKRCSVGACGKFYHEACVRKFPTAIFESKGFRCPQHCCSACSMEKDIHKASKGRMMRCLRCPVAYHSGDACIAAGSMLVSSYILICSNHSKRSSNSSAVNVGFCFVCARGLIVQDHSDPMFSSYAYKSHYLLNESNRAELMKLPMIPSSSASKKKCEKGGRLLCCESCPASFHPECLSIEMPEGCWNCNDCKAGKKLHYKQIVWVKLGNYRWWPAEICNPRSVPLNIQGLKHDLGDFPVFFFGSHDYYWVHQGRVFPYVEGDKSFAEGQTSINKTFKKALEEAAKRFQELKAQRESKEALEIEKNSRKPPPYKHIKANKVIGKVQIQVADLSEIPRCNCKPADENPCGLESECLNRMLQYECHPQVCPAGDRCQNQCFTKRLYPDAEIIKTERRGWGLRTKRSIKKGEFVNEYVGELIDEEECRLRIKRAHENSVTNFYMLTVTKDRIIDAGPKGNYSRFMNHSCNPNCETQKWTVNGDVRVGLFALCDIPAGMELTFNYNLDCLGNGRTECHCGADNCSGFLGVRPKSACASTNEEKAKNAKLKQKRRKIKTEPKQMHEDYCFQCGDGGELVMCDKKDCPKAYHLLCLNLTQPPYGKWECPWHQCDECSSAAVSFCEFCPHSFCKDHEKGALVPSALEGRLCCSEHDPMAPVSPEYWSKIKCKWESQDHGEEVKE

[4] = biological target: T1, Histone-lysine N-methyltransferase NSD2; assay: Inhibition of human NSD2-SET using histone H3.1 as substrate incubated for 1 hr by Western blot analysis
[5] = biological target: T1, Histone-lysine N-methyltransferase NSD2; assay: Inhibition of NSD2 (unknown origin)
[6] = biological target: T1, Histone-lysine N-methyltransferase NSD2; assay: Binding affinity to MMSET (973 to 1203 residues) (unknown origin) expressed in Escherichia coli BL21 DE3 by ITC analysis
[7] = biological target: T1, Histone-lysine N-methyltransferase NSD2; assay: Inhibition of NSD2 (953 to 1240 residues) (unknown origin) using SAM as substrate in presence of nucleosome by AlphaScreen assay

Row | SMILES | IC50 [1] [µM] | also measured
1 | CC(C)(C)NS(=O)(=O)c1cccc2c(N)cccc12 | 18.4 | –
2 | Nc1cccc2c(S(=O)(=O)NCC3CCCNC3)cccc12 (centres undefined) | > 20 | –
3 | Nc1ccc2c(S(=O)(=O)NCc3ccccc3)cccc2c1 | > 20 | –
4 | N#Cc1cccc(CNS(=O)(=O)c2cccc3c(N)cccc23)c1 | > 20 | –
5 | O=C(NCc1ccccc1)c1cccc2[nH]ccc12 | > 20 | –
6 | O=C(OCc1ccccc1)N1CCC(Nc2cccc3c(S(=O)(=O)NCc4ccccc4)cccc23)CC1 | > 20 | –
7 | Nc1ccc(S(=O)(=O)NCc2ccccc2)c2ccccc12 | > 20 | –
8 | COc1cc2nc(N3CCN(C)CC3)nc(NC3CCN(Cc4ccccc4)CC3)c2cc1OC | – | IC50 [2]: 112 µM; IC50 [3]: 95 µM; IC50 [4]: 41 µM
9 | CC(=O)Nc1cccc2c(S(=O)(=O)NCc3ccccc3)cccc12 | > 20 | –
10 | CN(C)c1cccc2c(S(=O)(=O)NCc3ccccc3)cccc12 | > 20 | –
11 | CS(=O)(=O)N1CCC(Nc2cccc3c(S(=O)(=O)NCc4ccccc4)cccc23)CC1 | 11.8 | –
12 | O=C(NCc1ccccc1)c1cccc2ncccc12 | 19.6 | –
13 | O=C1O[C@@H](C(=O)N2CCN(Cc3nc4sc5c(c4c(=O)[nH]3)CCCC5)CC2)Cc2ccccc21 | – | IC50 [5]: 11.2 µM
14 | Nc1cccc2c(S(=O)(=O)Nc3ccccc3)cccc12 | > 20 | –
15 | CN1CCC(Nc2cccc3c(S(=O)(=O)NCc4ccccc4)cccc23)CC1 | 6 | –
16 | Nc1ncnc2c1ncn2[C@@H]1O[C@H](CC(N)CC[C@H](N)C(=O)O)[C@@H](O)[C@H]1O (some centres undefined) | – | IC50 [5]: 26 µM
17 | Nc1cccc2c(S(=O)(=O)NCCc3ccccc3)cccc12 | 15.4 | –
18 | Nc1cccc2c(S(=O)(=O)NCc3cccs3)cccc12 | 22.7 | –
19 | N#Cc1ccc(CNS(=O)(=O)c2cccc3c(N)cccc23)cc1 | 18.1 | –
20 | O=S(=O)(NCc1ccccc1)c1cccc2ccccc12 | > 20 | –
21 | CN(Cc1ccccc1)S(=O)(=O)c1cccc2c(N)cccc12 | > 20 | –

Row | SMILES | IC50 [1] [µM] | also measured
22 | Nc1cccc2c(C(=O)NCc3ccccc3)cccc12 | 19.4 | –
23 | Nc1cccc2c(S(=O)(=O)N3CCC(Cc4ccccc4)CC3)cccc12 | > 20 | –
24 | Nc1cccc2c(S(=O)(=O)NCc3ccc(C(F)(F)F)cc3)cccc12 | 10.4 | –
25 | Nc1cccc2c(S(=O)(=O)NCc3ccc(F)cc3)cccc12 | 14.1 | –
26 | Nc1cccc2c(S(=O)(=O)NC3CC3c3ccccc3)cccc12 (trans isomer) | 19.9 | –
27 | NNc1nc2ccccc2nc1S | – | IC50 [5]: 3 µM
28 | O=S(=O)(NCc1ccccc1)c1cccc2c(NC3CCCCC3)cccc12 | 12.6 | –
29 | CCN1CCC(Nc2cccc3c(S(=O)(=O)NCc4ccccc4)cccc23)CC1 | 3.2 | –
30 | Nc1ccc2cc(S(=O)(=O)NCc3ccccc3)ccc2c1 | > 20 | –
31 | O=S(=O)(NCc1ccccc1)c1cccc2c(NC3CCNCC3)cccc12 | 10.2 | –
32 | CC(=O)N1CCC(Nc2cccc3c(S(=O)(=O)NCc4ccccc4)cccc23)CC1 | 7.5 | –
33 | CN1CCC(CNS(=O)(=O)c2cccc3c(N)cccc23)CC1 | 3.4 | –
34 | Nc1cccc2c(S(=O)(=O)NCC3CCCCC3)cccc12 | > 20 | –
35 | O=S(=O)(NCc1ccccc1)c1cccc2c(NCC3CC3)cccc12 | 10.7 | –
36 | CCC(C)NC(CC[C@H](N)C(=O)O)C[C@H]1O[C@@H](n2cnc3c(N)ncnc32)[C@H](O)[C@@H]1O (some centres undefined) | – | Kd [6]: 1.6 µM; IC50 [7]: 3.3 µM
37 | O=C(c1ccccc1)N1CCC(Nc2cccc3c(S(=O)(=O)NCc4ccccc4)cccc23)CC1 | 18 | –
38 | Nc1cccc2c(S(=O)(=O)NCc3ccc(C(=O)O)cc3)cccc12 | > 20 | –
39 | Nc1cccc2cc(S(=O)(=O)NCc3ccccc3)ccc12 | > 20 | –
40 | Nc1cccc2c(S(=O)(=O)NCc3ccncc3)cccc12 | 26 | –
41 | COc1ccc(CNS(=O)(=O)c2cccc3c(N)cccc23)cc1 | 13.5 | –
